Data: publication PMC10605077, “In Vitro and In Silico Antiviral Activity of Di-Halogenated Compounds Derived from L-Tyrosine against Human Immunodeficiency Virus 1 (HIV-1)” (Current Issues in Molecular Biology, 2023)
Entries after “also recorded” stand apart in the source; their conditions may differ. Like-named read-outs stand apart in the source and are kept apart here.

How the values were obtained:
[1] = tested on: HIV-1 BaL (R5); test: Anti-HIV activity in infected TZM-bl cells (luciferase), pre- and post-infection treatment; type: cell-based, Human Immunodeficiency Virus Type 1 (HIV-1); conditions: for anti-HIV activity against R5 strain in words: HIV-1 BaL; for IC50: 48 h, HIV-1 BaL (R5), luciferase; for inhibition at 37 µM / inhibition at 75 µM / inhibition at 150 µM / inhibition at 300 µM / inhibition at 18 µM: read-out: Percentage inhibition of HIV-1 BaL replication; for SI: selectivity index against HIV-1 BaL (CC50 and IC50 of Table 3)
Protocol: (§1) TZM-bl cells were plated in a flat-bottom 96-well plate (Corning Inc., Corning, New York, NY, USA) at the concentration of 1.2 × 10^5 cells/well and incubated for 24 h at 37 °C before the addition or not of each compound at non-cytotoxic concentrations (pre-infection treatment). Then, 1 h later the treatment was removed, and the infection was performed by adding 10 ng/mL of HIV-1IIIB p24 (X4) or 2 ng/mL of HIV-1 BaL (R5). After 3 h, the virus was removed and washed, and the compound dilutions were added again (post-infection treatment). Additionally, three wells were left for the negative control (cells without treatment or infection), the positive control of infection (cells infected with the virus without treatment), and the positive control of inhibition (AZT). Antiviral activity was quantified 48 h after treatment by measuring luciferase activity, which is directly proportional to the number of infectious virus particles in the sample [23]. The luciferase activity was quantified via luminescence emitted by the cells using Bright-GloTM Luciferase Assay System (Promega Corp., Madison, WI, USA), following the manufacturer’s instructions. Briefly, 100 μL of the reagent was added to 100 μL of TZM-bl cells and incubated for at least 2 min, protected from light. Relative light units (RLUs) were measured using the multi-mode plate reader (Thermo ScientificTM VarioskanTM LUX). Each experimental condition was performed in triplicate in two independent experiments (n = 6). The percentage inhibition was calculated as follows: 100 − (RLU of treated cells − RLU of uninfected cells/RLU of infection control − RLU of uninfected cells) × 100.

[2] = tested on: HIV-1IIIB (X4); test: as above; type: cell-based, Human Immunodeficiency Virus Type 1 (HIV-1); conditions: for anti-HIV activity against X4 strain in words: HIV-1IIIB; for inhibition at 18 µM / inhibition at 37 µM / inhibition at 75 µM / inhibition at 150 µM: Human immunodeficiency virus 1, TZM-bl, read-out: Percentage inhibition of HIV-1IIIB (X4 strain) replication
Protocol: as §1

[3] = MTT cytotoxicity assay; type: cell-based; conditions: human; TZM-bl cells, MTT, 48 h
Protocol: The in vitro cytotoxic effect of the di-halogenated compounds on TZM-bl cells was determined with the MTT (3-(4,5-Dimethylthiazol-2-yl)-2,5-diphenyltetrazolium bromide) assay (Sigma-Aldrich, St. Louis, MO, USA). For this purpose, 1.2 × 10^5 cells/well were seeded in 96-well plates, which were incubated at 37 °C and 5% CO2 for 24 h. DMEM was used as a negative control and serial two-fold dilutions of the compounds were performed at 9.37 to 300 μM in DMEM supplemented with 5% FBS. A total of 100 μL/well of each dilution was added and incubated for 48 h. Subsequently, the cells were washed 2 times with 1X PBS, and 30 μL of MTT solution (2 mg/mL) was added and incubated for 2 h at 37 °C, in a light-protected culture. Then, 100 µL of DMSO was added to dissolve the formazan crystals, placed in shaking for 15 min, and absorbance reading was performed at 570 nm, using the Microplate Spectrophotometer (Thermo Scientific™ Multiskan™ GO, Waltham, MA, USA). Two independent experiments evaluated each experimental condition in quadruplicate (n = 8). The percentage of viability was calculated concerning the absorbance of the controls without a compound (100% viability). The 50% cytotoxic concentration was defined as the concentration of each compound that can reduce cell viability to 50% of the untreated cell control. CC50 was calculated and analyzed with GraphPad Prism version 8.0.1 (GraphPad Software, Inc., San Diego, CA, USA).

[4] = Viability assay of PBMC, flow cytometry with viability dye; type: cell-based, Human; conditions: human, PBMC stimulated with PHA and IL-2; all concentrations tested (18.75 μM up to 150 μM), 7 days; read-out: viability level on PBMCs
Protocol: PBMCs were thawed and let in the culture in RPMI with 10% fetal bovine serum (FBS) (Gibco, Grand Island, NY, USA) for 24 h before each experiment. Cells were stimulated for 48 h with 8 μg/mL of Phytohemagglutinin-PHA (Sigma-Aldrich, St. Louis, MO, USA) and 50 UI/mL of IL-2 (Peprotech, Rocky Hill, CT, USA). In the presence of various concentrations of di-halogenated compounds derived from L-Tyrosine, 2 × 10^5 cells per well were treated and resuspended in 200 µL of fresh medium with 20 UI/mL of IL-2 and incubated in 96-well culture plates for 7 days. After 7 days post-treatment, cell viability was determined using flow cytometry. Briefly, cells were stained with fixable viability dye eFluor 506 (eBioscience, Leicestershire, UK) as detailed in the manufacturer’s protocol for 30 min in the dark. Later, cells were washed and resuspended in PBS, and the percentage of viable cells was measured instead in the LS Fortessa cytometer (BD Biosciences, Franklin Lakes, NJ, USA). Data were analyzed using FlowJo version 10.5.3 (FlowJo, LLC, Ashland, OR, USA).

[5] = tested on: HIV-GFP-VSV-G reporter virus; test: microbe, parasite or virus in culture; type: cell-based, HIV-1
[6] = Human immunodeficiency virus 1, BAL, TZM-bl, TZM-bl cells
[7] = Human immunodeficiency virus 1, BAL, 37 µM, TZM-bl cells
[8] = Human immunodeficiency virus 1, BAL, 75 µM, TZM-bl cells
[9] = Human immunodeficiency virus 1, BAL, 150 µM, TZM-bl cells
[10] = Human immunodeficiency virus 1, BAL, TZM-bl cells
[11] = Human immunodeficiency virus 1, BAL, 18 µM, TZM-bl cells
[12] = Human immunodeficiency virus 1, BAL, TZM-bl

Structure (SMILES)	anti-HIV activity against R5 strain in words ([1]; TZM-bl cells)	inhibition at 37 µM [1, 7]	inhibition at 75 µM [1, 8]	inhibition at 150 µM [1, 9]	anti-HIV activity against X4 strain in words ([2]; TZM-bl cells)	inhibition at 18 µM ([2]; 18 µM, TZM-bl cells)	inhibition at 37 µM ([2]; 37 µM, TZM-bl cells)	inhibition at 75 µM ([2]; 75 µM, TZM-bl cells)	inhibition at 150 µM ([2]; 150 µM, TZM-bl cells)	CC50 at 48 h [3]	inhibition at 18 µM [1, 11]	inhibition at 18 µM [1, 12]	inhibition at 37 µM [1, 12]	inhibition at 75 µM [1, 12]	inhibition at 150 µM [1, 12]	inhibition at 18 µM [2]	inhibition at 37 µM [2]	inhibition at 75 µM [2]	inhibition at 150 µM [2]	other results
CN(C)[C@@H](Cc1cc(Cl)c(O)c(Cl)c1)C(=O)O [TDC-2M]	showed antiviral activity	33%	37.9%	32.3%	no antiviral activity	-4.8%	-15.4%	-39.5%	-72.2%	~174 µM	–	–	–	–	–	–	–	–	–	IC50 [1, 6]: 141 µM; inhibition at 300 µM [1, 10]: 47.3%; SI [1]: ~1.24
COc1c(Cl)cc(C[C@@H](C(=O)O)[N+](C)(C)C)cc1Cl [TODC-3M]	–	54.9%	37.6%	46.7%	–	-1.3%	-6.9%	26.7%	14.9%	74.9 µM	–	–	–	–	–	–	–	–	–	viability at 7 days [4]: > 90%; percentage inhibition of HIV-GFP-VSV-G replication [5]: 19.5%; inhibition at 300 µM [1, 10]: 59.9%
COc1c(Br)cc(C[C@@H](C(=O)O)[N+](C)(C)C)cc1Br [TODB-3M]	showed no activity	-43.3%	-17.7%	-9.2%	showed no activity	12%	-41.1%	3.2%	-34%	–	-26%	–	–	–	–	–	–	–	–	–
COc1c(Br)cc(CCN(C)C)cc1Br [YODB-2M]	–	–	–	–	–	–	–	–	–	–	–	-51.1%	-73.9%	-88.5%	-14.9%	-24.6%	-20%	-20.2%	-17%	–
CN(C)CCc1cc(Cl)c(O)c(Cl)c1 [YDC-2M]	had no activity	–	–	–	had no activity	–	–	–	–	–	–	-4.1%	8.8%	19.1%	-2.8%	15.1%	-22%	22.6%	29.1%	–
CN(C)[C@@H](Cc1cc(Br)c(O)c(Br)c1)C(=O)O [TDB-2M]	did not inhibit the replicative activity	-45.5%	-19.2%	-51.9%	did not inhibit the replicative activity	-1.3%	15.9%	-2.9%	2.9%	–	-57.9%	–	–	–	–	–	–	–	–	–
C[N+](C)(C)CCc1cc(Cl)c(O)c(Cl)c1 [YDC-3M]	–	42.3%	33.4%	27.5%	–	41%	-25.7%	31.2%	29.9%	39.9 µM	50.2%	–	–	–	–	–	–	–	–	viability at 7 days [4]: > 90%; inhibition at 150 µM ([5]; Human immunodeficiency virus 1, TZM-bl, read-out: percentage inhibition of HIV-GFP-VSV-G replication): 12.5%; IC50 ([1]; TZM-bl cells): 37.7 µM; IC50 [1, 6]: 37.2 µM; SI [1]: 1.07; IC50 ([2]; Human immunodeficiency virus 1, HIV-1IIIB (X4), TZM-bl cells, luciferase, 48 h): 22.3 µM
COc1c(Cl)cc(CCN(C)C)cc1Cl [YODC-2M]	–	–	–	–	–	–	–	–	–	–	–	24.5%	12.2%	26.9%	-96.2%	-0.3%	2.3%	-2.2%	2.5%	–
COc1c(Br)cc(CC[N+](C)(C)C)cc1Br [YODB-3M]	–	-14.1%	-9%	9.3%	–	-3.1%	-10.5%	20.3%	13.1%	78.7 µM	-25.1%	–	–	–	–	–	–	–	–	–
CN(C)CCc1cc(Br)c(O)c(Br)c1 [YDB-2M]	had no antiviral activity; also recorded: did not show significant anti-HIV activity	–	–	–	had no antiviral activity	–	–	–	–	–	–	26.1%	2.7%	7%	-45.8%	14.6%	-7%	9.8%	-20.7%	–
C[N+](C)(C)[C@@H](Cc1cc(Cl)c(O)c(Cl)c1)C(=O)O [TDC-3M]	showed antiviral activity	20.4%	39.7%	29.6%	no antiviral activity	-111%	9.6%	8.1%	15.1%	> 300 µM	–	–	–	–	–	–	–	–	–	inhibition at 300 µM [1, 10]: 25.9%
COc1c(Cl)cc(CC[N+](C)(C)C)cc1Cl [YODC-3M]	–	-7.7%	-1%	-1.3%	–	3.2%	-5.8%	-8.6%	0.5%	–	-19.7%	–	–	–	–	–	–	–	–	–
C[N+](C)(C)[C@@H](Cc1cc(Br)c(O)c(Br)c1)C(=O)O [TDB-3M]	did not inhibit the replicative activity	-9.6%	-18%	-61.9%	did not inhibit the replicative activity	2.7%	21.6%	-15.7%	-22.4%	–	-20.5%	–	–	–	–	–	–	–	–	–
